Experimental data reported in US20150258020A1, “CHEWABLE TABLETS COMPRISING LEVONORGESTREL” (priority 2014, published 2015).

Conditions: particle size by volume, laser light diffraction, dry dispersion
Description: Particle size determination of Levonorgestrel
Equipment • Diffractometer of laser light, Mastersizer 3000 or equivalent • Micro analytical balance or semimicro
Weigh approximately 0.2-0.3g of the drug substance, and introduce to the dry accessory.
Dispersion Unit: MAZ3500 and cell (AD01)
Refraction index: 1.5/1.5 (red light/blue light)
Distribution Format: • Single mode • Enhanced sensitivity • Fine powder (activate)
Background run time: 10 s
Filter obscuration: 0.5-6%
Sampler settings: • Vibration feed rate: 50% • Dispersive air pressure: 2.5 bar

Question: For `C#C[C@]1(O)CC[C@H]2[C@@H]3CCC4=CC(=O)CC[C@@H]4[C@H]3CC[C@@]21CC` [Ultra-micronized levonorgestel, Levonorgestrel], which D10 is on record?
Answer: The D10 was 0.2 μm.

Question: And the D50?
Answer: The D50 was 1.0 μm.

Question: What about the D90 of the same compound?
Answer: The D90 was 1.1 μm.
